Experiments:
[1] = tested on: L. monocytogenes 10403 serotype; assay: Murine Listeria monocytogenes challenge model (induction of non-specific resistance); format: in vivo; settings: mice, 1 µg intravenously in 0.2% TEOA two days before intravenous challenge with ~10^5 L. monocytogenes; spleen CFUs two days after challenge
Experimental: This example provides experiments evaluating the induction of non-specific resistance in the murine Listeria monocytogenes challenge model performed using the compounds prepared in examples 1, 2 and 3. Mice (5 per group) were treated intravenously with the 1 µg of a cyclic AGP or MPL solublized in 0.2% triethanolamine (TEOA). Two days later the mice were challenged intravenously with a ~10^5 L. monocytogenes 10403 serotype (stock culture provided by Jory Baldridge, Washington State University, Pullman, WA.). Two days after the challenge the mice were sacrificed and the number of colony forming units (CFUs) in the spleens of individual mice were determined by plating 10-fold serial dilutions of splenic homogenates on tryptic soy agar plates. The degree of protection afforded by a given AGP or MPL was calculated by subtracting the average number of bacteria per spleen (log10 value) in the group of mice treated with a given compound, from the average number of bacteria per spleen (log10 value) in a control group that was "sham" treated with vehicle (0.2% TEOA) prior to challenge with L. monocytogenes.

Influenza A/HK/68 = assay: Protection against lethal influenza challenge by prophylactic intranasal administration; format: in vivo; settings: BALB/c mice; for protection when compared with the vehicle control: 20 µg intranasally 48 hours prior to challenge (5 LD50), judged by survival, clinical symptoms and prevention of weight loss for 21 days; for survival rate: 20 µg intranasally 48 hours prior to lethal intranasal challenge (5 LD50), followed 21 days
Experimental: This example provides experiments evaluating protection against a lethal challenge with influenza in cyclic AGP-treated mice. BALB/c mice (10 mice per group) were treated intranasally with 20 µg of the compounds of examples 1, 2 and 3, or with MPL, 48 hours prior to an lethal intranasal challenge of Influenza A/HK/68 (5 LD50). Protection was judged by survival, observations of clinical symptoms (ruffled fur, hunched posture and labored breathing), and prevention of weight loss for 21 days following the challenge.

Compound	protection (average number of bacteria per spleen, log10 value, vehicle control group minus treated group) [1]	protection when compared with the vehicle control (Influenza A/HK/68)	survival rate (Influenza A/HK/68)
CCCCCCCCCCC[C@H](CC(=O)N[C@H]1[C@H](OC[C@@H]2CCCN2C(=O)C[C@@H](CCCCCCCCCCC)OC(=O)CCCCCCCCC)O[C@H](CO)[C@@H](OP(=O)(O)O)[C@@H]1OC(=O)C[C@@H](CCCCCCCCCCC)OC(=O)CCCCCCCCC)OC(=O)CCCCCCCCC.CCN(CC)CC [Example 3, N-[(R)-3-Decanoyloxytetradecanoyl]-(S)-2-pyrrolidinylmethyl 2-Deoxy-4-O-phosphono-2-[(R)-3-Decanoyloxytetradecanoylamino]-3-O-[(R)-3-Decanoyloxytetradecanoyl]-β-D-glucopyranoside Triethylammonium Salt]	~ 0.9 log 10 units	enhanced protection	60%
N-[(R)-3-Tetradecanoyloxytetradecanoyl]-(S)-2-pyrrolidinylmethyl 2-Deoxy-4-O-phosphono-2-[(R)-3-tetradecanoyloxytetradecanoylamino]-3-O-[(R)-3-tetradecanoyloxytetradecanoyl]-β-D-glucopyranoside Triethylammonium Salt [Example 1]	0.2 log 10 units	–	No mice
CCCCCCCCCCCC(=O)O[C@H](CCCCCCCCCCC)CC(=O)N[C@H]1[C@H](OC[C@@H]2CCCN2C(=O)C[C@@H](CCCCCCCCCCC)OC(=O)CCCCCCCCCCC)O[C@H](CO)[C@@H](OP(=O)(O)O)[C@@H]1OC(=O)C[C@@H](CCCCCCCCCCC)OC(=O)CCCCCCCCCCC.CCN(CC)CC [Example 2, N-[(R)-3-Dodecanoyloxytetradecanoyl]-(S)-2-pyrrolidinylmethyl 2-Deoxy-4-O-phosphono-2-[(R)-3-dodecanoyloxy-tetradecanoylamino]-3-O-[(R)-3-dodecanoyloxytetradecanoyl]-β-D-glucopyranoside Triethylammonium Salt]	0.7 log 10 units	enhanced protection	40%

Source: patent EP1482955B1, “PROPHYLACTIC AND THERAPEUTIC TREATMENT OF […] OTHER DISEASES WITH IMMU[…]” (CORIXA CORPORATION, priority 2002, dated 2003)
